{"source": "patent US6682739B1", "about": "“Methods of inhibiting osteoclastogenesis” (The Trustees of the University of Pennsylvania, priority 1999, dated 2004)", "molecules": {"B1": {"name": "WP9QY (peptide)", "peptide": "YCWSQYLCY", "modifications": "disulfide 2-8", "notes": "Synthetic exocyclic peptide; also called WP9QY peptide; peptidomimetic (WP9QY)"}, "B2": {"name": "OPG: naturally occurring secreted protein with homology to members of the TNF receptor family; positive control in the TRAP assay (protein, UniProt O00300 22-401, looked up)", "Tumor necrosis factor …": "ETFPPKYLHYDEETSHQLLCDKCPPGTYLKQHCTAKWKTVCAPCPDHYYTDSWHTSDECLYCSPVCKELQYVKQECNRTHNRVCECKEGRYLEIEFCLKHRSCPPGFGVVQAGTPERNTVCKRCPDGFFSNETSSKAPCRKHTNCSVFGLLLTQKGNATHDNICSGNSESTQKCGIDVTLCEEAFFRFAVPTKFTPNWLSVLVDNLPGTKVNAESVERIKRQHSSQEQTFQLLKLWKHQNKDQDIVKKIIQDIDLCENSVQRHIGHANLTFEQLRSLMESLPGKKVGAEDIEKTIKACKPSDQILKLLSLWRIKNGDQDTLKGLMHALKHSKTYHFPKTVTQSLKKTIRFLHSFTMYKLYQKLFLEMIGNQVQSVKISCL"}}, "key": {"[1]": {"tested_on": "osteoclast formation (osteoclastogenesis)", "conditions": "co-culture induced by 1alpha,25-dihydroxyvitamin D3 and PGE2"}, "TNF-α receptor": {"tested_on": "TNF-α receptor", "conditions": "L929 lymphocytes; cited from earlier work"}, "[2]": {"tested_on": "TRANCE-induced marrow cultures (RANK Ligand/RANK interaction)", "experiment": "TRANCE-induced marrow cultures", "type": "cell-based", "conditions": "reciprocal dose-dependence of WP9QY and TRANCE"}, "TNF": {"molecular_target": "T1, TNF (UniProt P01375 77-233)", "T1 construct": "also called TNF-alpha; Tumor Necrosis Factor", "T1 sequence (P01375 77-233 limits assumed)": "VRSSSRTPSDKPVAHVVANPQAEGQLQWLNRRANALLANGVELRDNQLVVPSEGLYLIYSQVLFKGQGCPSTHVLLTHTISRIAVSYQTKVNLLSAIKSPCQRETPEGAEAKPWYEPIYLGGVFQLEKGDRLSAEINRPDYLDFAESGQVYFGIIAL", "experiment": "inhibition of the TNF/TNF receptor interaction; format not described in Example 1"}, "[3]": {"tested_on": "osteoclastogenesis and associated bone resorption", "conditions": "administration in vivo; animal models that mimic osteopenic disorders; cited from earlier work"}}, "note": "Positions of bridges follow the written chain, without caps; N, C: chain ends. No end group written: not given here."}
{"molecule": "CC(C)C[C@@H]1NC(=O)[C@H](Cc2ccc(O)cc2)NC(=O)[C@H](CCC(N)=O)NC(=O)[C@H](CO)NC(=O)[C@H](Cc2c[nH]c3ccccc23)NC(=O)[C@@H](NC(=O)[C@@H](N)Cc2ccc(O)cc2)CSSC[C@@H](C(=O)N[C@@H](Cc2ccc(O)cc2)C(=O)O)NC1=O", "note": "[WP9QY, YC WSQYL CY]", "values": [{"measurement": "inhibition of osteoclastogenesis, in words", "setting": "[1]", "result": "dose- and time-dependently inhibited"}, {"measurement": "IC50", "setting": "[1]; read-out: IC50 for inhibition of osteoclastogenesis, peptide tested at about 5 μM to about 500 μM", "result": 250, "unit": "µM"}, {"measurement": "antagonism of the effects of TNF-binding to the TNF-α receptor", "setting": "TNF-α receptor", "result": "efficiently antagonized"}, {"measurement": "effect on TRANCE-induced marrow cultures", "setting": "[2]", "result": "inhibits"}]}
{"molecule": "B1", "values": [{"measurement": "IC50", "setting": "TNF", "result": 5, "unit": "µM"}]}
{"molecule": "B2", "values": [{"measurement": "effect on osteoclastogenesis and associated bone resorption in vivo", "setting": "[3]", "result": "inhibits osteoclastogenesis and associated bone resorption"}]}
